The target of one experiment is T1, HLA A2.1 (UniProt P01901+P04439, D140Y/D185E/D98H/E176V/G131W/I119V/I121R/I166T/N151K/N90K/Q86G/Q94H/R138H/R169H).
T1 construct: expressed in transfected cells; host or cells: T2-A2.1/K^b cells
In words: Competition assay: inhibition of influenza matrix peptide M1 (58-66) binding to A2.1, read as inhibition of lysis by an M1-specific CTL clone. To be noted: test peptide 10 μg vs influenza matrix peptide 0.1 μg; T2-A2.1/K^b target cells. Further details: species or system human. The method, then: Briefly, each test peptide (10 μg) was incubated with radiolabeled target cells (T2-A2.1/K^b, 10^6 target cells labeled with […] ^51Cr at 37° for 1.5 hours) in the presence of an influenza virus matrix protein (0.1 μg). The ability of these peptides to inhibit the binding of the influenza matrix protein peptide MI (58-66) to A2.1 was measured by inhibition of lysis by an M1 (58-66) specific, A2.1 restricted CTL clone.

Another experiment has as its system ST486. In words: Lysis of tumor cells by peptide-specific CTL. The format is cell-based, human. To be noted: 6 hours; for Killing of tumor (lysis): ST486, lymphoma, A2 +, Her-2 −, no cytokine preincubation; for Killing of tumor (lysis) + CYT: ST486, tumor preincubated 24 hours with 20 ng/ml γ-IFN and 3 ng/ml TNF-α.
For another experiment, the system named is MDA.MB435. In words: Lysis of tumor cells by peptide-specific CTL. The format is cell-based, human. Conditions: 6 hours; for Killing of tumor (lysis): MDA.MB435, breast, A2 −, Her-2 +, no cytokine preincubation; for Killing of tumor (lysis) + CYT: MDA.MB435, tumor preincubated 24 hours with 20 ng/ml γ-IFN and 3 ng/ml TNF-α.
Another experiment relates to SW480. In words: Lysis of tumor cells by peptide-specific CTL. Conditions: 6 hours; for Killing of tumor (lysis): SW480, colon, A2 +, Her-2 +, no cytokine preincubation; for Killing of tumor (lysis) + CYT: SW480, tumor preincubated 24 hours with 20 ng/ml γ-IFN and 3 ng/ml TNF-α. The format is cell-based, human.
The test system of the next experiment is T98G. As to the kind of experiment: Lysis of tumor cells by peptide-specific CTL. The format is cell-based, human. To be noted: 6 hours; for Killing of tumor (lysis) + CYT: tumor preincubated 24 hours with 20 ng/ml γ-IFN and 3 ng/ml TNF-α; for Killing of tumor (lysis): glioblastoma, A2 +, Her-2 +, no cytokine preincubation.
In a further experiment the test system is BT549. As to the kind of experiment: Lysis of tumor cells by peptide-specific CTL. The format is cell-based, human. Conditions: 6 hours; for Killing of tumor (lysis): BT549, breast, A2 +, Her-2 +, no cytokine preincubation; for Killing of tumor (lysis) + CYT: BT549, tumor preincubated 24 hours with 20 ng/ml γ-IFN and 3 ng/ml TNF-α.
Another experiment deals with U87G. As to the kind of experiment: Lysis of tumor cells by peptide-specific CTL. The format is cell-based, human. To be noted: 6 hours; for Killing of tumor (lysis) + CYT: tumor preincubated 24 hours with 20 ng/ml γ-IFN and 3 ng/ml TNF-α; for Killing of tumor (lysis): glioblastoma, A2 +, Her-2 −, no cytokine preincubation.
A further experiment deals with SKMEL-5. As to the kind of experiment: Lysis of tumor cells by peptide-specific CTL. The format is cell-based, human. To be noted: 6 hours; for Killing of tumor (lysis): SKMEL-5, melanoma, A2 +, Her-2 +, no cytokine preincubation; for Killing of tumor (lysis) + CYT: SKMEL-5, tumor preincubated 24 hours with 20 ng/ml γ-IFN and 3 ng/ml TNF-α.
The next experiment concerns SAOS.175. As to the kind of experiment: Lysis of tumor cells by peptide-specific CTL. The format is cell-based, human. Conditions: 6 hours; for Killing of tumor (lysis): SAOS.175, osteosarcoma, A2 +, Her-2 +, no cytokine preincubation; for Killing of tumor (lysis) + CYT: SAOS.175, tumor preincubated 24 hours with 20 ng/ml γ-IFN and 3 ng/ml TNF-α.
Another experiment deals with MALME-3M. As to the kind of experiment: Lysis of tumor cells by peptide-specific CTL. The format is cell-based, human. To be noted: 6 hours; for Killing of tumor (lysis) + CYT: tumor preincubated 24 hours with 20 ng/ml γ-IFN and 3 ng/ml TNF-α; for Killing of tumor (lysis): melanoma, A2 +, Her-2 +, no cytokine preincubation.
For a further experiment, the system named is CASKI. As to the kind of experiment: Lysis of tumor cells by peptide-specific CTL. The format is cell-based, human. To be noted: 6 hours; for Killing of tumor (lysis) + CYT: tumor preincubated 24 hours with 20 ng/ml γ-IFN and 3 ng/ml TNF-α; for Killing of tumor (lysis): cervix, A2 +, Her-2 +, no cytokine preincubation.
A further experiment concerns MCF-7. As to the kind of experiment: Lysis of tumor cells by peptide-specific CTL. The format is cell-based, human. Conditions: 6 hours; for Killing of tumor (lysis): MCF-7, breast, A2 +, Her-2 +, no cytokine preincubation; for Killing of tumor (lysis) + CYT: MCF-7, tumor preincubated 24 hours with 20 ng/ml γ-IFN and 3 ng/ml TNF-α.
Another experiment concerns LG-2. In words: Lysis of tumor cells by peptide-specific CTL. The format is cell-based, human. To be noted: 6 hours; for Killing of tumor (lysis): LG-2, EBV-trans., A2 +, Her-2 −, no cytokine preincubation; for Killing of tumor (lysis) + CYT: LG-2, tumor preincubated 24 hours with 20 ng/ml γ-IFN and 3 ng/ml TNF-α.
In another experiment the test system is OVCAR-5. As to the kind of experiment: Lysis of tumor cells by peptide-specific CTL. Conditions: 6 hours; for Killing of tumor (lysis): OVCAR-5, ovarian, A2 +, Her-2 +, no cytokine preincubation; for Killing of tumor (lysis) + CYT: OVCAR-5, tumor preincubated 24 hours with 20 ng/ml γ-IFN and 3 ng/ml TNF-α. The format is cell-based, human.
A further experiment relates to MDA.MB231. As to the kind of experiment: Lysis of tumor cells by peptide-specific CTL. The format is cell-based, human. Conditions: 6 hours; for Killing of tumor (lysis): MDA.MB231, breast, A2 +, Her-2 +, no cytokine preincubation; for Killing of tumor (lysis) + CYT: MDA.MB231, tumor preincubated 24 hours with 20 ng/ml γ-IFN and 3 ng/ml TNF-α.
The next experiment relates to Hep-G2. In words: Lysis of tumor cells by peptide-specific CTL. The format is cell-based, human. To be noted: 6 hours; for Killing of tumor (lysis): Hep-G2, hepatoma, A2 +, Her-2 +, no cytokine preincubation; for Killing of tumor (lysis) + CYT: Hep-G2, tumor preincubated 24 hours with 20 ng/ml γ-IFN and 3 ng/ml TNF-α.
For a further experiment, the system named is JY. As to the kind of experiment: Lysis of tumor cells by peptide-specific CTL. The format is cell-based, human. Conditions: 6 hours; for Killing of tumor (lysis) + CYT: tumor preincubated 24 hours with 20 ng/ml γ-IFN and 3 ng/ml TNF-α; for Killing of tumor (lysis): lymphoma, A2 +, Her-2 −, no cytokine preincubation.
For another experiment, the system named is NCl.H1355. In words: Lysis of tumor cells by peptide-specific CTL. The format is cell-based, human. Conditions: 6 hours; for Killing of tumor (lysis): NCl.H1355, lung, A2 +, Her-2 +, no cytokine preincubation; for Killing of tumor (lysis) + CYT: NCl.H1355, tumor preincubated 24 hours with 20 ng/ml γ-IFN and 3 ng/ml TNF-α.
In another experiment the test system is SV80. As to the kind of experiment: Lysis of tumor cells by peptide-specific CTL. The format is cell-based, human. To be noted: 6 hours; for Killing of tumor (lysis): SV80, fibroblast, A2 +, Her-2 −, no cytokine preincubation; for Killing of tumor (lysis) + CYT: SV80, tumor preincubated 24 hours with 20 ng/ml γ-IFN and 3 ng/ml TNF-α.
The test system of the next experiment is U2-OS. As to the kind of experiment: Lysis of tumor cells by peptide-specific CTL. To be noted: 6 hours; for Killing of tumor (lysis) + CYT: tumor preincubated 24 hours with 20 ng/ml γ-IFN and 3 ng/ml TNF-α; for Killing of tumor (lysis): osteosarcoma, A2 +, Her-2 +, no cytokine preincubation. The format is cell-based, human.

These results are taken from patent US20010007152A1, “RECOMBINANT CONSTRUCTS ENCODING T CELL RECEPTORS SPECIFIC FOR HUMAN HLA-RESTRICTED TUMOR ANTIGENS” (priority 1996, published 2001).

With “DIDETEYHA [H18, Her-2/neu peptide 871-879]”, the “% INHIBITION” value with HLA A2.1 is on record as 37%.
As to “DLLEKGERL [H19, Her-2/neu peptide 933-941]”, the “% INHIBITION” value with HLA A2.1 was found to be 36%.
Take “DLVDAEEYL [H23, Her-2/neu peptide 1016-1024]”: the “% INHIBITION” value in the experiment with HLA A2.1 came out at 35%.
Still for that read-out and setting: in the case of “ELVSEFSRM [H20, Her-2/neu peptide 971-979]” it was 5%; in that of “ELVSEFSRMA [H21, Her-2/neu peptide 971-980]”, 25%; in that of HLYQGOQW [H12], 15%.
For the sequence “KIPVAIKVL [H14, Her-2/neu peptide 747-755]”, the “% INHIBITION” value with HLA A2.1 came out at 35%.
Take “KLVGKLNWA [HIV-9K, HIV POL peptide, known to be immunogenic, used as a control, reference compound]”: the Killing of tumor (lysis) in the experiment with ST486 came out at 1%; in the experiment on MDA.MB435 it was 4%; with SW480 it was 1%; in the experiment on T98G, 9%; with BT549, 2%; with U87G, 5%. The Killing of tumor (lysis) was found to be 5% with SKMEL-5; 18% in the experiment with SAOS.175; 2% in the experiment with MALME-3M; 8% in the experiment with CASKI; 3% in the experiment with MCF-7; 1% with LG-2. The Killing of tumor (lysis) in the experiment with OVCAR-5 is 10%; with MDA.MB231, 3%; in the experiment on Hep-G2, 1%; in the experiment on JY, 2%; with NCl.H1355 it was 7%; in the experiment on SV80 it was 2%. Further, the Killing of tumor (lysis) in the experiment with U2-OS was 18%. Further, the “Killing of tumor (lysis) + CYT” value worked out at 1 in the experiment with ST486; 3 in the experiment with MDA.MB435; 4 with SW480; 13 in the experiment on T98G; 15 in the experiment on BT549; 1 in the experiment with U87G. For the same sequence, the “Killing of tumor (lysis) + CYT” value in the experiment on SKMEL-5 was found to be 4; in the experiment with SAOS.175, 11; in the experiment with MALME-3M it was 1; in the experiment with CASKI, 11; with MCF-7 it was 7; in the experiment with LG-2, 1. Besides, the “Killing of tumor (lysis) + CYT” value in the experiment with OVCAR-5 is reported as 12; in the experiment on MDA.MB231, 14; in the experiment on Hep-G2, 8; with JY it was 1; in the experiment with NCl.H1355, 25; in the experiment on SV80 it was 2. In the experiment with U2-OS, the “Killing of tumor (lysis) + CYT” value is reported as 24.
Turning to “LVSEFSRMA [H22, Her-2/neu peptide 972-980]”, in the experiment with HLA A2.1, the “% INHIBITION” value is listed as 14%.
Still for that read-out and setting: to “QLMPYGCLL [H16, Her-2/neu peptide 799-807]” belongs 50%; to RLLQETELV [H13], 56%.
Same read-out and setting: in the case of “TLQGLGISWL [H6, Her-2/neu peptide 444-453]” it was 56%; in that of “TLSPGKNGV [H24, Her-2/neu peptide 1172-1180]”, 57%.
As to “VLQGLPREYV [H8, Her-2/neu peptide 546-555]”, the “% INHIBITION” value in the experiment with HLA A2.1 is 43%.
As to “VLVKSPNHV [H17, Her-2/neu peptide 851-859]”, the “% INHIBITION” value with HLA A2.1 turned out to be 12%.
VMAGVGSPYV [H7]: the Killing of tumor (lysis) in the experiment on ST486 came to 5%; in the experiment on MDA.MB435 it was 1%; in the experiment with SW480 it was 2%; in the experiment on T98G, 29%; with BT549, 2%; in the experiment with U87G, 1%. In addition, the Killing of tumor (lysis) amounted to 16% with SKMEL-5; 27% with SAOS.175; 4% with MALME-3M; 9% in the experiment with CASKI; 7% with MCF-7; 1% in the experiment with LG-2. Also, the Killing of tumor (lysis) in the experiment on OVCAR-5 is 13%; in the experiment with MDA.MB231, 26%; with Hep-G2 it was 4%; in the experiment with JY, 4%; with NCl.H1355, 13%; with SV80, 2%. In addition, the Killing of tumor (lysis) in the experiment on U2-OS amounted to 30%. In addition, the “Killing of tumor (lysis) + CYT” value in the experiment on ST486 amounted to 8; with MDA.MB435, 1; in the experiment on SW480, 17; with T98G it was 93; in the experiment on BT549 it was 36; in the experiment on U87G it was 1. Further, the “Killing of tumor (lysis) + CYT” value in the experiment on SKMEL-5 turned out to be 40; in the experiment on SAOS.175, 35; with MALME-3M it was 14; in the experiment with CASKI it was 20; in the experiment on MCF-7, 40; in the experiment on LG-2, 3. The “Killing of tumor (lysis) + CYT” value in the experiment on OVCAR-5 came to 23; in the experiment on MDA.MB231 it was 89; in the experiment on Hep-G2 it was 29; with JY it was 2; with NCl.H1355, 62; with SV80 it was 2. Also, the “Killing of tumor (lysis) + CYT” value in the experiment with U2-OS is 62. The “% INHIBITION” value with HLA A2.1 was found to be 55%.
